Converted amounts (≈) assume the structure as drawn. Read-outs that look alike come from different tables or passages of the source.
How the values were obtained:
[1] = system: Candida strains (A-J); assay: Antifungal MIC, summary over panel of Candida strains; type: cell-based
Experimental: Fungal MIC determination experiments were performed using untreated 96-well plates (Corning). Cells were counted either by using a hemocytometer (Hausser Scientific, Horsham, Pa., USA) or by measuring optical density at attenuance of 600 nm (OD600) by using a Genesys 20 spectrophotometer (Thermo Scientific, Waltham, Mass., USA). Spectrophotometric and colorimetric measurements in 96-well plates were performed using a SpectraMax M5 spectrometer (Molecular Devices, Sunnyvale, Calif., USA).
Yeast strains Candida albicans ATCC 10231 (strain A), C. albicans ATCC 64124 (strain B), and C. albicans ATCC MYA-2876(S) (strain C) were kindly provided by Dr. Jon Y. Takemoto (Utah State University, Logan, UT, USA). C. albicans ATCC MYA-90819(R) (strain D), C. albicans ATCC MYA-2310(S) (strain E), C. albicans ATCC 1237(R) (strain F), C. albicans ATCC MYA-1003(R) (strain G), Candida glabrata ATCC 2001 (strain H), Candida krusei ATCC 6258 (strain I), and Candida parapsilosis ATCC 22019 (strain J) were obtained from the American Type Culture Collection (ATCC, Manassas, Va., USA). The (S) and (R) indicate that ATCC reports these strains to be susceptible (S) and resistant (R) to ITC and FLC. The filamentous fungal strains Aspergillus flavus ATCC MYA-3631 (strain K), and Aspergillus terreus ATCC MYA-3633 (strain M) were also obtained from the American Type Culture Collection (ATCC, Manassas, Va., USA). Aspergillus nidulans ATCC 38163 (strain L) was kindly provided by Dr. Jon S. Thorson (University of Kentucky, Lexington, Ky., USA), respectively. Yeast strains were cultured at 35° C. Filamentous fungal strains were cultured at 25° C. and the spores were harvested. All fungal strains were cultured in RPMI 1640 medium (catalog # R6504, Sigma-Aldrich Chemical Co., St. Louis, Mo.) buffered to pH 7.0 with 0.165 M morpholinepropanesulfonic acid (MOPS) buffer (Sigma-Aldrich Chemical Co.).
The MIC values against fungal strains were determined based on a previously published protocol. MIC values for ebsulfur (2a) analogues against fungal cells were evaluated in 96-well plates as described in the CLSI document M27-A3 with minor modifications. […] Therefore, potato dextrose broth (PDB) was used to grow the yeast inocula of all strains tested, which were later diluted in RPMI 1640 medium to perform determination of MIC values. […] The tested compounds (10 mg/mL) were diluted to the working stocks (500 μg/mL) by addition of DMSO. Two-fold serial dilution of the working stocks was prepared by addition of RPMI 1640 medium (100 μL) and cell suspension (100 μL) to 96-well microtiter plate to achieve final drug and inoculum concentrations ranging from 12.5-0.02 μg/mL and 5×10^3 CFU/mL, respectively. Plates were incubated for 48 h at 35° C. […]

[2] = system: Aspergillus nidulans ATCC 38163 (strain L); assay: Antifungal MIC determination, filamentous fungi spores; type: cell-based; settings: strain L; spores
Method in brief: (§1)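 CLSI M27-A3 microdilution, modified; RPMI 1640/0.165 M MOPS pH 7.0; final drug 12.5-0.02 μg/mL (2-fold series), inoculum 5×10^3 CFU/mL; 48 h, 35° C. Aspergillus: spores from 3-5 day PDA cultures at 25° C, tested likewise.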

[3] = system: Aspergillus flavus ATCC MYA-3631 (strain K); assay: as above; type: cell-based; settings: all compounds
Method in brief: as §1

[4] = system: Aspergillus terreus ATCC MYA-3633 (strain M); assay: as above; type: cell-based; settings: strain M; all compounds; spores
Method in brief: as §1

[5] = system: C. albicans ATCC MYA-2310(S) (strain E); assay: Antifungal MIC determination (CLSI M27-A3, 96-well); type: cell-based, Candida albicans; settings: strain E; compounds 1-4n and AmB; 48 h, RPMI 1640
Method in brief: (§2)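 Yeasts were precultured in potato dextrose broth, then diluted in RPMI 1640 (pH 7.0, 0.165 M MOPS) to a final 5×10^3 CFU/mL. Compounds were serially diluted two-fold to 12.5-0.02 μg/mL. Plates were incubated 48 h at 35° C.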

[6] = system: C. albicans ATCC MYA-2876(S) (strain C); assay: as above; type: cell-based, Candida albicans; settings: strain C; compounds 1-4n and AmB; 48 h, RPMI 1640
Method in brief: as §2

[7] = system: Murine red blood cells (mRBCs); assay: Hemolytic assay
Experimental: Hemolytic activity was determined as previously described with minor modifications (FIG. 3). […] Compounds were serially diluted in Eppendorf tubes containing H2O (100 μL). […] The tubes were then incubated for 1 h at 37° C. Tubes containing dd H2O (200 μL) and triton X-100® (1% v/v, 2 μt) served as negative (blank) and positive (100%) control, respectively. The percent hemolysis was calculated using the following equation: % hemolysis=[(absorbance of sample)−(absorbance of blank)]×100/(absorbance of positive control). Fifty percent hemolysis (HC50) values were defined as the concentrations of compounds required to lyse 50% of the mRBCs.

[8] = system: C. albicans ATCC 64124 (strain B); type: cell-based, Candida albicans
Experimental: The efficiency of the compounds to kill C. albicans ATCC 64124 (strain B) was monitored using a previously published protocol. The cell suspensions were prepared to achieve an inoculum of approximately 1-4×10^5 CFU/mL in RPMI 1640 medium at 35° C. […] After fungal cell addition, at 0, 3, 6, 9, 12, and 24 h, the tubes were vortexed and 100 μL aliquots were removed from each solution, spread onto PDA plates, and incubated at 35° C. Colony counts were determined after 24 h of incubation. The experiments were performed in duplicate (FIG. 2).
Time-kill assays with ebsulfur (2a) and analogue 3a (FIG. 2) were performed to determine the rate of fungicidal activity of the compounds if the invention.

SMILES | MIC values against Candida strains, range ([1]; Candida strains A-J) [µg/mL] | MIC-0 [2] | MIC-0 [3] [µg/mL] | MIC-0 [4] [µg/mL] | MIC-0 [5] [µg/mL] | MIC-0 [6] [µg/mL] | MIC values against clinically relevant Candida strains [1] [µg/mL] | fold more active than AmB ([1]; anti-Candida) | fold more potent in MIC values than FLC ([1]; anti-Candida, except against strain J) | fold MIC lower than the hemolytic concentration ([7]; Aspergillus strains) [fold] | fold MIC lower than the hemolytic concentration ([7]; Candida strains) | hemolytic concentration ([7]; mRBCs, 1 h at 37° C.) | fungicidal or fungistatic effect [8] | reduction of fungal cells [8] [log] | fungicidal or fungistatic effect ([8]; 1× MIC) | fungicidal or fungistatic effect ([8]; 2× MIC)
CC(C)(C)n1sc2ccccc2c1=O [Compound 3g] | 0.78 to 3.13 | 0.10 µg/mL (≈ 0.482 µM) | 0.10 (≈ 0.482 µM) | 0.10 (≈ 0.482 µM) | 1.56 (≈ 7.53 µM) | 3.13 (≈ 15.1 µM) | – | – | – | – | – | – | – | – | – | –
CCCCCn1sc2ccccc2c1=O [Compound 3a] | – | ≤0.02 µg/mL | ≤0.02 | ≤0.02 | 0.39 (≈ 1.76 µM) | 0.78 (≈ 3.52 µM) | 0.78 (≈ 3.52 µM) | 1.25- to 10 fold | 20- to 320 fold | ≥ 195 | at least 5 fold | approximately 3.9 μg/mL | fungistatic | 4 | fungistatic | fungistatic
CCCCCCn1sc2ccccc2c1=O [Compound 3b] | – | ≤≤0.02 μg/mL | ≤0.02 | ≤0.02 | 0.78 (≈ 3.31 µM) | 0.78 (≈ 3.31 µM) | 0.78 (≈ 3.31 µM) | – | – | – | – | – | – | – | – | –

From patent US10544112B2, “Identification of ebsulfur analogues with broad-spectrum antifungal activity” (priority 2017, dated 2020)
